The values below come from patent US8815864B2, “Indanyloxydihydrobenzofuranylacetic acids” (Boehringer Ingelheim International GmbH, priority 2012, dated 2014).

For the experiment, the target named is human GPR40 receptor (Homo sapiens, UniProt O14842). The experiment can be described thus: IP1 accumulation measurements using the IPOne assay system. The note with it: 1321N1 cells stably expressing human GPR40; stimulation 1 h at 37° C. It counts as cell-based. The protocol:
IP1 accumulation measurements using the IPOne assay system—1321N1 cells stably expressing human GPR40 receptor (Euroscreen, Belgium) are seeded 24 h before the assay in white 384-well plates in culture medium containing 10% FCS, 1% Na-Pyruvate and 400 μg/mL G418. IP1 is assayed according to the manufacturer's description (Cisbio Bioassays, France). In brief, the assay is started by substitution of the culture medium by stimulation buffer (Hepes 10 mM, CaCl2 1 mM, MgCl2 0.5 mM, KCl 4.2 mM, NaCl 146 mM, glucose 5.5 mM and LiCl 50 mM, pH 7.4). Cells are stimulated for 1 h at 37° C., 5% CO2 by addition of the compounds that are diluted in stimulation buffer containing LiCl. Assays are stopped by adding HTRF-conjugates (IP1-d2 and Anti-IP1 cryptate Tb) and lysis buffer, provided by the manufacturer. After an incubation time of 1 h at room temperature plates are measured using an EnVision™, Perkin Elmer. The obtained fluorescence ratios at 665/615 […] are then used to calculate the pEC50 values using Assay Explorer 3.3 Software (Accelrys, Inc.) by interpolation using an IP1 reference curve and subsequent sigmoidal curve fitting allowing for a variable hill slope.

Sequence of human GPR40 receptor (O14842 whole entry): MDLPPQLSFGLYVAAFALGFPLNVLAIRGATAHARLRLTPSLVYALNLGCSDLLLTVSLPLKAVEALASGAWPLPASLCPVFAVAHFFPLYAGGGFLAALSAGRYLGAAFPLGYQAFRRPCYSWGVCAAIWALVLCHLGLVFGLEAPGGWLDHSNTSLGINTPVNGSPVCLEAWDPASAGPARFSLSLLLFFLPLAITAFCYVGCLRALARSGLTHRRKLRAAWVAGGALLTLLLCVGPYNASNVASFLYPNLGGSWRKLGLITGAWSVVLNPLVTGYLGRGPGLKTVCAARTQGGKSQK

The EC50 is the concentration needed to bring the measured effect to its halfway point. A high value points to lower potency in that assay. The compound `Cc1nc2cc(Oc3ccc(F)c4c3CC[C@H]4Oc3ccc4c(c3)OC[C@H]4CC(=O)O)ccc2o1` [Example 55, {(S)-6-[(R)-7-Fluoro-4-(2-methyl-benzoxazol-5-yloxy)-indan-1-yloxy]-2,3-dihydro-benzofuran-3-yl}-acetic acid] showed an EC50 of 6 nM. `COc1ccc(Oc2ccc(F)c3c2CC[C@H]3Oc2ccc3c(c2)OC[C@H]3CC(=O)O)c(F)c1` [Example 56, {(S)-6-[(R)-4-(2-Fluoro-4-methoxy-phenoxy)-7-fluoro-indan-1-yloxy]-2,3-dihydro-benzofuran-3-yl}-acetic acid] showed an EC50 of 6 nM. The same measure for `COc1c(F)cc(Oc2ccc(F)c3c2CC[C@H]3Oc2ccc3c(c2)OC[C@H]3CC(=O)O)cc1F` [Example 57, {(S)-6-[(R)-4-(3,5-Difluoro-4-methoxy-phenoxy)-7-fluoro-indan-1-yloxy]-2,3-dihydro-benzofuran-3-yl}-acetic acid]: 7 nM; for `Cc1nc2ccc(Oc3ccc(F)c4c3CC[C@H]4Oc3ccc4c(c3)OC[C@H]4CC(=O)O)cc2o1` [Example 58, {(S)-6-[(R)-7-Fluoro-4-(2-methyl-benzoxazol-6-yloxy)-indan-1-yloxy]-2,3-dihydro-benzofuran-3-yl}-acetic acid]: 3 nM; for `Cc1nc2ccc(Oc3ccc(F)c4c3CC[C@H]4Oc3ccc4c(c3)OC[C@H]4CC(=O)O)cc2s1` [Example 59, {(S)-6-[(R)-7-Fluoro-4-(2-methyl-benzothiazol-6-yloxy)-indan-1-yloxy]-2,3-dihydro-benzofuran-3-yl}-acetic acid]: 5 nM. Regarding `Cc1noc2ccc(Oc3ccc(F)c4c3CC[C@H]4Oc3ccc4c(c3)OC[C@H]4CC(=O)O)cc12` [Example 60, {(S)-6-[(R)-7-Fluoro-4-(3-methyl-benzo[d]isoxazol-5-yloxy)-indan-1-yloxy]-2,3-dihydro-benzofuran-3-yl}-acetic acid], the EC50 turned out to be 3 nM. Then `Cc1noc2cc(Oc3ccc(F)c4c3CC[C@H]4Oc3ccc4c(c3)OC[C@H]4CC(=O)O)ccc12` [Example 61, {(S)-6-[(R)-7-Fluoro-4-(3-methyl-benzo[d]isoxazol-6-yloxy)-indan-1-yloxy]-2,3-dihydro-benzofuran-3-yl}-acetic acid], with 3 nM.
